Results as given in patent publication US20210155715A1, “USE OF TRYPTOPHAN DERIVATIVES AND L-METHIONINE FOR PROTEIN FORMULATION” (Genentech, Inc., priority 2018, published 2021).

Columns and labels:
[1] = AAPH chemical oxidation stress of mAb1/mAb2, LC-MS peptide mapping; format: physicochemical; details: 0.3 mM NAT
Description: Antibodies were subjected to AAPH stress followed by peptide mapping to identify the CDR and Fc residues that were sensitive to oxidation (Dion et al., manuscript in preparation). […] If a residue oxidized by >5% relative to the control, it was deemed sensitive and monitored throughout the course of the experiments. […] In brief, samples were denatured, reduced, carboxylmethylated and subjected to trypsin digestion. Peptides were separated on an Acquity UPLC Peptide CSH C18 column using a water/acetonitrile/formic acid gradient on a Waters Acquity H-Class UHPLC coupled to a Thermo Q Exactive Plus high-resolution mass spectrometer. Data was processed using Thermo Scientific PepFinder™ and Xcalibur™ software. Integration was performed on extracted ion chromatograms of monoisotopic m/z using the most abundant charge state(s) for the native and oxidized peptides. The percent oxidation was calculated by dividing the peak area of the oxidized peptides by the summed peak area of the native and oxidized peptides. The major tryptophan degradation products (+16 and +32, in addition to +4, +20, and +48 for highly oxidized sites) were summed and used to calculate tryptophan oxidation. Only methionine sulfoxide (M+16) was used to calculate methionine oxidation, as methionine sulfone (M+32) was not observed under these conditions. […]

[2] = target: T1, neurokinin-1 (NK-1) receptor (Homo sapiens, UniProt P25103); assay: Binding to the NK-1 receptor in U373MG human astrocytoma cells; details: room temperature
T1 construct: U373MG human astrocytoma cells which endogenously express the receptor; endogenous in cells; host or cells: U373MG human astrocytoma cells
Method: The activity of NAT was assessed in binding, cellular and nuclear receptor functional and tissue bioassays. Binding to the neurokinin-1 (NK-1) receptor was assessed in U373MG human astrocytoma cells which endogenously express the receptor (Eistetter et al. (1992) Functional characterization of Neurokinin-1 receptors on human U373MG astrocytoma cells. Glia 6(2):89-95; Heuillet et al. (1993) J. Neurochem 60(3):868-876), and compared to the reference agonist [Sar^9, Met(O2)^11]-SP or to the reference antagonist L 733,060. NAT or the reference compounds were incubated with U373MG cells at room temperature; all concentrations were assayed in duplicate.

[3] = Light exposure stress (high intensity UV) of mAb1/mAb2, LC-MS peptide mapping; format: physicochemical; details: 5 mM L-Methionine
Description: Antibodies were subjected to AAPH stress followed by peptide mapping to identify the CDR and Fc residues that were sensitive to oxidation (Dion et al., manuscript in preparation). Kabat numbering was used to identify variable fragment (Fv) residues, while EU nomenclature (Edelman et al. (1969) Proc Natl Acad Sci USA 63(1):78-85) was used to identify Fc residues. If a residue oxidized by >5% relative to the control, it was deemed sensitive and monitored throughout the course of the experiments. Peptide mapping and analysis information was as reported in Dion et al. (manuscript in preparation). In brief, samples were denatured, reduced, carboxylmethylated and subjected to trypsin digestion. […] The percent oxidation was calculated by dividing the peak area of the oxidized peptides by the summed peak area of the native and oxidized peptides. […]
Proteins (10 mg/mL) were exposed to light stress with a high intensity UV component (300 kilolux-hours visible light and 50 W·h/m^2 of near UV (320-400 nm) light over a 6-hour period) at various NAT concentrations (0-1 mM NAT) to determine the efficacy of NAT as an antioxidant against photo-oxidation (FIGS. 3A-B). […] Residues that were determined to be insensitive to light oxidation under antioxidant-free conditions remained insensitive to light when NAT was added to the formulation under the tested conditions.

T1 sequence (P25103 whole entry): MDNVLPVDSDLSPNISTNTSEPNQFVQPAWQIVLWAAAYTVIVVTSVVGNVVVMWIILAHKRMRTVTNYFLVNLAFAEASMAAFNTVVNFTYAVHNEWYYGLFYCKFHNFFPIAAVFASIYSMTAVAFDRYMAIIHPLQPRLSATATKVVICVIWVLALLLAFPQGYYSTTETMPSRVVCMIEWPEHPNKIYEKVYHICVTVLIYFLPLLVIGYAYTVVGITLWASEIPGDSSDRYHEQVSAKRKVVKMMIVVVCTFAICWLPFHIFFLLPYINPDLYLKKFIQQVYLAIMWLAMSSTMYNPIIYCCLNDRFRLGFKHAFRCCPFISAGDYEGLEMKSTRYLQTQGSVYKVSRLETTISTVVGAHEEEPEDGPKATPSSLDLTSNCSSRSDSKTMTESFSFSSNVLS

Row | oxidation of CDR and Fv tryptophan residues [1] [%] | IC50 for agonist binding to the NK-1 receptor [2] | IC50 for antagonist binding to the NK-1 receptor [2] | impact on oxidation of CDR and Fv residues ([3]; alone or with 0.3 mM NAT, UV light) | UV light-induced Fc methionine oxidation ([3]; mAb1 and mAb2) | Compound
1 | < 10 | could not be calculated | could not be calculated | – | – | CC(=O)NC(Cc1c[nH]c2ccccc12)C(=O)O (racemic) [NAT, N-acetyl-DL-tryptophan]
2 | – | – | – | no beneficial impact | improved | CSCC[C@H](N)C(=O)O [L-Methionine, L-methionine]
